# Data as given in PMC11672637, “7-O-Carboxylic Acid-Substituted 3-O-Alkyl Difluoroquercetin; An Aztreonam-Potentiating Agent Against Carbapenemase-Producing Pseudomonas aeruginosa Through Simultaneous Inhibition of Metallo-β-Lactamase and Efflux Pump” (Antibiotics, 2024).
# Tests used:
# AmpC = experiment: β-lactamase inhibition assay (nitrocefin); type: biochemical; details: nitrocefin substrate; read-out: BLi, IC50 AmpC
# Method: (§1) Recombinant AmpC, OXA-48 (residues 23–265) and VIM-2 (residues 27–266) were prepared from Escherichia coli based on previously established protocols. KPC-2 and NDM-1 are commercially available from LifeSpan Biosciences, Inc., Seattle, WA, USA (LS-G26598) and RayBiotech, Inc., Peachtree Corners, GA, USA (230-00554), respectively. For β-lactamase inhibition assay, in a 96-well plate, 70–0.1 μM (in PBS) of the synthesized compounds (1~14) (100 μL) were mixed with diluted β-lactamase stock (2% DMSO in 200 μL). In a separate 96-well plate, a substrate of AmpC, KPC-2, OXA-48, and VIM-2 (nitrocefin) and NDM-1 (imipenem) were added into each well (final concentrations of 70 μM for nitrocefin and 100 μM for imipenem). After incubation at 37 °C for 20 min, the mixture of the synthesized compounds (1~14) and β-lactamase in one plate was added to the substrate in the other plate. Enzymatic hydrolysis of the substrate was then monitored by a Cytation 5 imaging multimode reader (BioTek Instruments Inc., Winooski, VT, USA) at 486 nm and 300 nm for nitrocefin and imipenem, respectively, for 15 min. The rates of hydrolysis in the presence of the inhibitors were determined when the reaction rate plateaued. Comparison of the enzymatic hydrolysis rates in the presence and the absence of inhibitors (100%) provided the percentage of enzyme inhibition at each concentration of the synthesized compounds. The IC50 values were obtained after non-linear regression (sigmoidal dose-responses) by GraphPad Prism 5 (GraphPad Software, Boston, MA, USA).
# KPC-2 = molecular target: T1, KPC-2 (Klebsiella pneumoniae, UniProt Q9F663); experiment: β-lactamase inhibition assay (nitrocefin); type: biochemical; details: nitrocefin substrate; read-out: BLi, IC50 KPC-2
# T1 construct: purchased LifeSpan Biosciences, Inc. LS-G26598
# Method: as §1
# OXA-48 = molecular target: T2, OXA-48 (Klebsiella pneumoniae, UniProt Q6XEC0); experiment: β-lactamase inhibition assay (nitrocefin); type: biochemical; details: nitrocefin substrate; read-out: BLi, IC50 OXA-48
# T2 construct: OXA-48 (residues 23–265); made in house; host or cells: Escherichia coli
# Method: as §1
# VIM-2 = molecular target: T3, VIM-2 (Escherichia coli, UniProt Q5U7L7); experiment: β-lactamase inhibition assay (nitrocefin); type: biochemical; details: nitrocefin substrate; read-out: BLi, IC50 VIM-2
# T3 construct: VIM-2 (residues 27–266); made in house; host or cells: Escherichia coli
# Method: as §1
# NDM-1 = molecular target: T4, NDM-1 (Klebsiella pneumoniae, UniProt C7C422); experiment: β-lactamase inhibition assay (imipenem); type: biochemical; details: imipenem substrate; read-out: BLi, IC50 NDM-1
# T4 construct: purchased RayBiotech, Inc. 230-00554
# Method: as §1
# [1] = tested on: efflux pump activity in P. aeruginosa (PA-017, blaNDM); experiment: EtBr accumulation, inhibition of efflux pump activity; type: cell-based; details: EtBr fluorescence compared with positive control CCCP
# Method: The NDM-producing P. aeruginosa clinical isolate (PA-017, blaNDM) (5 mL, LB medium) was grown to reach the mid-log phase. After centrifugation at 3500 rpm for 15 min, the bacterial pellet was washed twice with PBS and resuspended to OD600 = 0.3 in PBS. To each well of a flat-bottomed black 96-well plate, 182 µL of the bacterial suspension, 4 µL of glucose [final concentration = 0.4% (w/v)], 4 µL of the synthesized compounds or positive control CCCP, and 10 µL of EtBr (final concentration = 1 µg/mL) were added. The plate was incubated at 37 °C, and fluorescence emission from EtBr (λex 480 nm/λem 630 nm) was recorded every 2 min (for 60 min) using a Cytation 5 imaging multi-mode reader (BioTek Instruments, Inc., Winooski, VT, USA).
# HEK293 cells = experiment: Cytotoxicity assay (WST-1); type: cell-based, human; details: 24 h, 0.5–128 mg/L tested
# Method: The HEK293 cells were cultured in Dulbecco’s modified Eagle medium (DMEM) supplemented with 10% fetal bovine serum (FBS) and 1% penicillin-streptomycin solution at 37 °C with 5% CO2. The cells seeded into 96-well plates at 1.5 × 10^4 cells/well were incubated for 24 h. The compound 5 was added to the wells at concentrations ranging from 0.5 to 128 mg/L and incubated for 24 h. Then, for WST-1 assay, EZ-cytox solution (10 μL, DoGenBio, Seoul, Republic of Korea) was added to the wells and incubated for 1 h, and the absorbance was measured at 450 nm (Cytation 5 imaging multimode reader, BioTek Instruments, Inc., Winooski, VT, USA).
# human red blood cells = experiment: Hemolytic activity assay; type: cell-based; details: human RBCs; 4–128 mg/L tested
# Method: Washed human red blood cells (hRBCs, Innovative Research, Novi, MI, USA) were diluted 1:100 in HEPES-NaOH buffered saline (HBS) [150 mM NaCl/5 mM HEPES-NaOH (pH 7.4)]. Samples (100 μL) were taken from the serially diluted (4 to 128 mg/L) compound 5 and mixed with 250 μL of hRBCs in 1.5 mL microcentrifuge tube. After incubation at 37 °C for 30 min, the tubes were centrifuged at 3000 rpm for 5 min. The supernatant (50 μL), thus obtained, was transferred to transparent, flat-bottom 96-well plates and absorption was measured at 405 nm (Cytation 5 imaging multimode reader, BioTek Instruments, Inc., Winooski, VT, USA). In some cases, 1% TritonX-100 or HBS buffer was used instead of the compound 5 as positive and negative controls, respectively. The percentage of hemolysis was calculated as follows: % Hemolysis = (ODtest − ODHBS)/[…] × 100%.
# T2 sequence (Q6XEC0 23-265 limits assumed): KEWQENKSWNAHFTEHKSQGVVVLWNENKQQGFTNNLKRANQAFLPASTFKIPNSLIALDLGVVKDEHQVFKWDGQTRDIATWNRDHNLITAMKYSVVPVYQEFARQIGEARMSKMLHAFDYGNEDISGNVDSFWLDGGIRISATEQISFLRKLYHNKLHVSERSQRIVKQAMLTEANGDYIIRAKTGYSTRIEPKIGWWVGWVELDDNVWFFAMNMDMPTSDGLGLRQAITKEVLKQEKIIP
# T1 sequence (Q9F663 25-293, looked up, species assumed): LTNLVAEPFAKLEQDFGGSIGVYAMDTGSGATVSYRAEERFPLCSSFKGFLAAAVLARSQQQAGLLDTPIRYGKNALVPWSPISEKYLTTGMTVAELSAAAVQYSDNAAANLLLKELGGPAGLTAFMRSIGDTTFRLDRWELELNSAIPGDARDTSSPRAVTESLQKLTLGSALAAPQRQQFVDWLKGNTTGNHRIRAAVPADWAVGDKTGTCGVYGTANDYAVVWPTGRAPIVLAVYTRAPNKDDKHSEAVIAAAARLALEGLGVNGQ
# T4 sequence (C7C422 29-270, looked up, species assumed): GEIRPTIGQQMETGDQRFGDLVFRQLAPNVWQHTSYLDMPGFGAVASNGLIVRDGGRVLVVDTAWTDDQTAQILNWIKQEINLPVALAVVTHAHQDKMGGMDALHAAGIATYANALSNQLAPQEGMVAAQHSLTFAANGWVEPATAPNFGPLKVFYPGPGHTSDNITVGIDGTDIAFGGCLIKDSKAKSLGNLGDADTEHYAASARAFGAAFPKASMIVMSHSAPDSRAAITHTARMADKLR
structure (smiles),measurement,setting,value
"CC(C)(C)CCOc1c(-c2ccc(F)c(F)c2)oc2cc(OCC(=O)O)cc(O)c2c1=O [Compound 5, 2-((2-(3,4-Difluorophenyl)-3-(3,3-dimethylbutoxy)-5-hydroxy-4-oxo-4H-chromen-7-yl)oxy)acetic Acid]",IC50,AmpC,> 50 µM
same,IC50,KPC-2,> 50 µM
same,IC50,OXA-48,> 100 µM
same,IC50,VIM-2,> 100 µM
same,IC50,NDM-1,6.1 ± 0.4 µM
same,EPi (inhibition of efflux pump activity),[1],↑ ^g
same,Concentration at which cell viability was affected,HEK293 cells,greater than 64 mg/L
same,Concentration up to which no noticeable toxic effect (hemolysis),human red blood cells,≥ 128 µg/mL
